Results reported in the supplement of paper PMC10307832.

Experiments:
Assay in all cases: relative viability (nuclei count vs DMSO), 5 days (fraction); higher = more cells survive
ABC-1 = system: ABC-1
In short: (§1)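 Lung cancer cell lines, seeded in 1536-well plates, were treated the following day by pin tool with a single drug or with five library-drug doses (not always all listed) in √10 steps on top of a fixed anchor-drug dose. Cells were fixed and nuclei stained in one step after 5 days, and nuclei were counted. Relative viability is the nuclei count for treated wells divided by that for vehicle wells, reported as medians of duplicate plates.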

CAL-12T = system: CAL-12T
In short: as §1

COR-L 105 = system: COR-L 105
In short: as §1

ChaGo-K-1 = system: ChaGo-K-1
In short: as §1

EMC-BAC-2 = system: EMC-BAC-2
In short: as §1

EPLC-272H = system: EPLC-272H
In short: as §1

HCC-15 = system: HCC-15
In short: as §1

HCC-78 = system: HCC-78
In short: as §1

HOP-62 = system: HOP-62
In short: as §1

LXF-289 = system: LXF-289
In short: as §1

NCI-H1666 = system: NCI-H1666
In short: as §1

NCI-H1755 = system: NCI-H1755
In short: as §1

NCI-H1915 = system: NCI-H1915
In short: as §1

NCI-H1975 = system: NCI-H1975
In short: as §1

NCI-H2023 = system: NCI-H2023
In short: as §1

NCI-H2085 = system: NCI-H2085
In short: as §1

NCI-H2126 = system: NCI-H2126
In short: as §1

NCI-H3122 = system: NCI-H3122
In short: as §1

NCI-H322M = system: NCI-H322M
In short: as §1

NCI-H358 = system: NCI-H358
In short: as §1

NCI-H441 = system: NCI-H441
In short: as §1

UMC-11 = system: UMC-11
In short: as §1

COc1cc2nccc(Oc3ccc(NC(=O)Nc4cc(C)on4)c(Cl)c3)c2cc1OC [Tivozanib] + O=C(c1cc(Cc2n[nH]c(=O)c3ccccc23)ccc1F)N1CCN(C(=O)C2CC2)CC1 [Olaparib] (partner 8 µM)
relative viability (ABC-1; first compound 0.005 µM): 0.815 | relative viability (ABC-1; first compound 0.01581 µM): 0.837 | relative viability (ABC-1; first compound 0.05 µM): 0.579 | relative viability (ABC-1; first compound 0.1581 µM): 1.02 | relative viability (ABC-1; first compound 0.5 µM): 0.67 | relative viability (CAL-12T; first compound 0.005 µM): 0.666 | relative viability (CAL-12T; first compound 0.01581 µM): 0.654 | relative viability (CAL-12T; first compound 0.05 µM): 0.75 | relative viability (CAL-12T; first compound 0.1581 µM): 0.812 | relative viability (CAL-12T; first compound 0.5 µM): 0.584 | relative viability (COR-L 105; first compound 0.005 µM): 0.629 | relative viability (COR-L 105; first compound 0.01581 µM): 0.558 | relative viability (COR-L 105; first compound 0.05 µM): 0.773 | relative viability (COR-L 105; first compound 0.1581 µM): 0.713 | relative viability (COR-L 105; first compound 0.5 µM): 0.705 | relative viability (ChaGo-K-1; first compound 0.005 µM): 0.386 | relative viability (ChaGo-K-1; first compound 0.01581 µM): 0.381 | relative viability (ChaGo-K-1; first compound 0.05 µM): 0.409 | relative viability (ChaGo-K-1; first compound 0.1581 µM): 0.412 | relative viability (ChaGo-K-1; first compound 0.5 µM): 0.37 | relative viability (EMC-BAC-2; first compound 0.005 µM): 0.492 | relative viability (EMC-BAC-2; first compound 0.01581 µM): 0.543 | relative viability (EMC-BAC-2; first compound 0.05 µM): 0.469 | relative viability (EMC-BAC-2; first compound 0.1581 µM): 0.472 | relative viability (EMC-BAC-2; first compound 0.5 µM): 0.358 | relative viability (EPLC-272H; first compound 0.005 µM): 0.63 | relative viability (EPLC-272H; first compound 0.01581 µM): 0.969 | relative viability (EPLC-272H; first compound 0.05 µM): 0.741 | relative viability (EPLC-272H; first compound 0.1581 µM): 0.783 | relative viability (EPLC-272H; first compound 0.5 µM): 0.659 | relative viability (HCC-15; first compound 0.005 µM): 0.661 | relative viability (HCC-15; first compound 0.01581 µM): 0.709 | relative viability (HCC-15; first compound 0.05 µM): 0.755 | relative viability (HCC-15; first compound 0.1581 µM): 0.696 | relative viability (HCC-15; first compound 0.5 µM): 0.553 | relative viability (HCC-78; first compound 0.005 µM): 0.796 | relative viability (HCC-78; first compound 0.01581 µM): 0.746 | relative viability (HCC-78; first compound 0.05 µM): 0.732 | relative viability (HCC-78; first compound 0.1581 µM): 0.872 | relative viability (HCC-78; first compound 0.5 µM): 0.581 | relative viability (HOP-62; first compound 0.005 µM): 0.472 | relative viability (HOP-62; first compound 0.01581 µM): 0.405 | relative viability (HOP-62; first compound 0.05 µM): 0.324 | relative viability (HOP-62; first compound 0.1581 µM): 0.537 | relative viability (HOP-62; first compound 0.5 µM): 0.37 | relative viability (LXF-289; first compound 0.005 µM): 0.984 | relative viability (LXF-289; first compound 0.01581 µM): 0.994 | relative viability (LXF-289; first compound 0.05 µM): 1.09 | relative viability (LXF-289; first compound 0.1581 µM): 1.13 | relative viability (LXF-289; first compound 0.5 µM): 0.99 | relative viability (NCI-H1666; first compound 0.005 µM): 0.777 | relative viability (NCI-H1666; first compound 0.01581 µM): 0.713 | relative viability (NCI-H1666; first compound 0.05 µM): 0.739 | relative viability (NCI-H1666; first compound 0.1581 µM): 0.802 | relative viability (NCI-H1666; first compound 0.5 µM): 0.719 | relative viability (NCI-H1755; first compound 0.005 µM): 0.835 | relative viability (NCI-H1755; first compound 0.01581 µM): 0.829 | relative viability (NCI-H1755; first compound 0.05 µM): 0.936 | relative viability (NCI-H1755; first compound 0.1581 µM): 0.773 | relative viability (NCI-H1755; first compound 0.5 µM): 0.784 | relative viability (NCI-H1915; first compound 0.005 µM): 0.255 | relative viability (NCI-H1915; first compound 0.01581 µM): 0.279 | relative viability (NCI-H1915; first compound 0.05 µM): 0.286 | relative viability (NCI-H1915; first compound 0.1581 µM): 0.291 | relative viability (NCI-H1915; first compound 0.5 µM): 0.206 | relative viability (NCI-H1975; first compound 0.005 µM): 0.753 | relative viability (NCI-H1975; first compound 0.01581 µM): 0.815 | relative viability (NCI-H1975; first compound 0.05 µM): 0.756 | relative viability (NCI-H1975; first compound 0.1581 µM): 0.76 | relative viability (NCI-H1975; first compound 0.5 µM): 0.662 | relative viability (NCI-H2023; first compound 0.005 µM): 0.469 | relative viability (NCI-H2023; first compound 0.01581 µM): 0.476 | relative viability (NCI-H2023; first compound 0.05 µM): 0.454 | relative viability (NCI-H2023; first compound 0.1581 µM): 0.481 | relative viability (NCI-H2023; first compound 0.5 µM): 0.454 | relative viability (NCI-H2085; first compound 0.005 µM): 0.712 | relative viability (NCI-H2085; first compound 0.01581 µM): 0.848 | relative viability (NCI-H2085; first compound 0.05 µM): 0.876 | relative viability (NCI-H2085; first compound 0.1581 µM): 0.946 | relative viability (NCI-H2085; first compound 0.5 µM): 0.734 | relative viability (NCI-H2126; first compound 0.005 µM): 0.954 | relative viability (NCI-H2126; first compound 0.01581 µM): 0.907 | relative viability (NCI-H2126; first compound 0.05 µM): 1 | relative viability (NCI-H2126; first compound 0.1581 µM): 0.845 | relative viability (NCI-H2126; first compound 0.5 µM): 0.899 | relative viability (NCI-H3122; first compound 0.005 µM): 0.616 | relative viability (NCI-H3122; first compound 0.01581 µM): 0.641 | relative viability (NCI-H3122; first compound 0.05 µM): 0.768 | relative viability (NCI-H3122; first compound 0.1581 µM): 0.684 | relative viability (NCI-H3122; first compound 0.5 µM): 0.606 | relative viability (NCI-H322M; first compound 0.005 µM): 0.656 | relative viability (NCI-H322M; first compound 0.01581 µM): 0.811 | relative viability (NCI-H322M; first compound 0.05 µM): 0.755 | relative viability (NCI-H322M; first compound 0.1581 µM): 0.72 | relative viability (NCI-H322M; first compound 0.5 µM): 0.714 | relative viability (NCI-H358; first compound 0.005 µM): 0.522 | relative viability (NCI-H358; first compound 0.01581 µM): 0.612 | relative viability (NCI-H358; first compound 0.05 µM): 0.583 | relative viability (NCI-H358; first compound 0.1581 µM): 0.61 | relative viability (NCI-H358; first compound 0.5 µM): 0.542 | relative viability (NCI-H441; first compound 0.005 µM): 0.538 | relative viability (NCI-H441; first compound 0.01581 µM): 0.531 | relative viability (NCI-H441; first compound 0.05 µM): 0.525 | relative viability (NCI-H441; first compound 0.1581 µM): 0.432 | relative viability (NCI-H441; first compound 0.5 µM): 0.396 | relative viability (UMC-11; first compound 0.005 µM): 0.373 | relative viability (UMC-11; first compound 0.01581 µM): 0.393 | relative viability (UMC-11; first compound 0.05 µM): 0.456 | relative viability (UMC-11; first compound 0.1581 µM): 0.33 | relative viability (UMC-11; first compound 0.5 µM): 0.415
